According to paper PMC5218480 (PLoS ONE, 2017):

System: MV-4-11 cells
Test: Gene expression microarray analysis (Affymetrix PrimeView) and GSEA
Format: cell-based, human
Parameters: RFU PODN (11730768_x_at) / Fold change /veh PODN (11730768_x_at) / RFU LINC00158 (11744669_a_at) / Fold change /veh LINC00158 (11744669_a_at) / RFU DUSP10 (11751237_a_at) / Fold change /veh DUSP10 (11751237_a_at) / RFU ID3 (11757404_x_at) / Fold change /veh ID3 (11757404_x_at) / RFU PLEKHG5 (11737974_s_at) / Fold change /veh PLEKHG5 (11737974_s_at) / RFU LRRC4B (11730491_at) / Fold change /veh LRRC4B (11730491_at) / RFU GIMAP4 (11747438_a_at) / Fold change /veh GIMAP4 (11747438_a_at) / RFU KRT8 (11758183_x_at) / Fold change /veh KRT8 (11758183_x_at) / RFU CNN1 (11734310_a_at) / Fold change /veh CNN1 (11734310_a_at) / RFU VPS37D (11726825_at) / Fold change /veh VPS37D (11726825_at) / RFU C10orf10 (11716522_x_at) / Fold change /veh C10orf10 (11716522_x_at) / RFU KIR2DL2 /// KIR2DL4 /// KIR2DL5A /// KIR2DL5B /// KIR2DS1 /// KIR2DS2 /// KIR2DS3 /// KIR2DS4 /// KIR3DL3 /// KIR3DL3 /// KIR3DS1 (11738374_at) / Fold change /veh KIR2DL2 /// KIR2DL4 /// KIR2DL5A /// KIR2DL5B /// KIR2DS1 /// KIR2DS2 /// KIR2DS3 /// KIR2DS4 /// KIR3DL3 /// KIR3DL3 /// KIR3DS1 (11738374_at) / RFU C1QL1 (11718748_at) / Fold change /veh C1QL1 (11718748_at) / RFU TMPRSS4 (11747572_a_at) / Fold change /veh TMPRSS4 (11747572_a_at) / RFU HAMP (11756126_x_at) / Fold change /veh HAMP (11756126_x_at) / RFU RNFT2 (11725882_a_at) / Fold change /veh RNFT2 (11725882_a_at) / RFU NR4A2 (11747474_a_at) / Fold change /veh NR4A2 (11747474_a_at) / RFU ABCC12 (11746883_a_at) / Fold change /veh ABCC12 (11746883_a_at) / RFU TMEM136 (11760407_x_at) / Fold change /veh TMEM136 (11760407_x_at) / RFU CLDN22 /// WWC2 (11732394_at) / Fold change /veh CLDN22 /// WWC2 (11732394_at) / RFU HLA-DPB1 (11760878_x_at) / Fold change /veh HLA-DPB1 (11760878_x_at) / RFU SPINT1 (11716480_a_at) / Fold change /veh SPINT1 (11716480_a_at) / RFU GAP43 (11754022_s_at) / Fold change /veh GAP43 (11754022_s_at) / RFU A4GNT (11735810_at) / Fold change /veh A4GNT (11735810_at) / RFU PRB3 (11715151_x_at) / Fold change /veh PRB3 (11715151_x_at) / RFU TUBB4B (11761932_at) / Fold change /veh TUBB4B (11761932_at) / RFU CAPN14 (11732068_a_at) / Fold change /veh CAPN14 (11732068_a_at) / RFU TMCC2 (11721928_a_at) / Fold change /veh TMCC2 (11721928_a_at) / RFU IRGQ (11745062_a_at) / Fold change /veh IRGQ (11745062_a_at) / RFU FAM174B (11720279_a_at) / Fold change /veh FAM174B (11720279_a_at) / RFU TMPRSS4 (11748680_a_at) / Fold change /veh TMPRSS4 (11748680_a_at) / RFU FAM212B (11763350_a_at) / Fold change /veh FAM212B (11763350_a_at) / RFU PLEKHG5 (11743358_a_at) / Fold change /veh PLEKHG5 (11743358_a_at) / RFU ZSCAN30 (11745921_a_at) / Fold change /veh ZSCAN30 (11745921_a_at) / RFU CMKLR1 (11741424_a_at) / Fold change /veh CMKLR1 (11741424_a_at) / RFU LOC101060620 /// MAPK8IP1 (11723275_at) / Fold change /veh LOC101060620 /// MAPK8IP1 (11723275_at) / RFU SPTSSB (11747773_x_at) / Fold change /veh SPTSSB (11747773_x_at) / RFU PRSS12 (11739890_at) / Fold change /veh PRSS12 (11739890_at) / RFU BIN1 (11741810_x_at) / Fold change /veh BIN1 (11741810_x_at) / RFU WNT11 (11732464_a_at) / Fold change /veh WNT11 (11732464_a_at) / RFU C10orf10 (11716521_a_at) / Fold change /veh C10orf10 (11716521_a_at) / RFU C5orf56 (11738089_at) / Fold change /veh C5orf56 (11738089_at) / RFU CYB561 (11721691_x_at) / Fold change /veh CYB561 (11721691_x_at) / RFU ANKRD19P (11752326_a_at) / Fold change /veh ANKRD19P (11752326_a_at) / RFU OR2T12 /// OR2T33 /// OR2T8 (11738714_s_at) / Fold change /veh OR2T12 /// OR2T33 /// OR2T8 (11738714_s_at) / RFU VCAN (11748164_a_at) / Fold change /veh VCAN (11748164_a_at) / RFU JSRP1 (11732532_at) / Fold change /veh JSRP1 (11732532_at) / RFU KRTAP10-11 (11738290_x_at) / Fold change /veh KRTAP10-11 (11738290_x_at) / RFU MYO3A (11730013_a_at) / Fold change /veh MYO3A (11730013_a_at) / RFU EBF3 (11725865_a_at) / Fold change /veh EBF3 (11725865_a_at) / RFU CAMK2N1 (11719241_x_at) / Fold change /veh CAMK2N1 (11719241_x_at) / RFU C5orf56 (11738088_a_at) / Fold change /veh C5orf56 (11738088_a_at) / RFU OLFML3 (11715873_a_at) / Fold change /veh OLFML3 (11715873_a_at) / RFU LOC100653217 /// NTM (11731650_a_at) / Fold change /veh LOC100653217 /// NTM (11731650_a_at) / RFU MAPK11 (11762145_a_at) / Fold change /veh MAPK11 (11762145_a_at) / RFU FIZ1 (11724087_x_at) / Fold change /veh FIZ1 (11724087_x_at) / RFU OASL (11726364_x_at) / Fold change /veh OASL (11726364_x_at) / RFU SOX15 (11748057_x_at) / Fold change /veh SOX15 (11748057_x_at) / RFU CD79A (11719716_a_at) / Fold change /veh CD79A (11719716_a_at) / RFU HIST1H1D (11736915_at) / Fold change /veh HIST1H1D (11736915_at) / RFU CASKIN2 (11723855_a_at) / Fold change /veh CASKIN2 (11723855_a_at) / RFU LOC730098 (11760151_x_at) / Fold change /veh LOC730098 (11760151_x_at) / RFU OR4N2 (11742367_at) / Fold change /veh OR4N2 (11742367_at) / RFU PRRT2 (11749266_a_at) / Fold change /veh PRRT2 (11749266_a_at) / RFU SNX32 (11753110_a_at) / Fold change /veh SNX32 (11753110_a_at) / RFU CDHR5 (11726645_a_at) / Fold change /veh CDHR5 (11726645_a_at) / RFU RCAN1 (11760418_a_at) / Fold change /veh RCAN1 (11760418_a_at) / RFU FAM167A (11723789_a_at) / Fold change /veh FAM167A (11723789_a_at) / RFU FAM26E (11764081_at) / Fold change /veh FAM26E (11764081_at) / RFU ISYNA1 (11749810_s_at) / Fold change /veh ISYNA1 (11749810_s_at) / RFU ACY1 (11761880_at) / Fold change /veh ACY1 (11761880_at) / RFU 11764098_at / Fold change /veh 11764098_at / RFU SAMD14 (11745864_x_at) / Fold change /veh SAMD14 (11745864_x_at) / RFU NPB (11741838_a_at) / Fold change /veh NPB (11741838_a_at) / RFU TMPRSS6 (11731388_a_at) / Fold change /veh TMPRSS6 (11731388_a_at) / RFU KRTAP10-2 (11738614_at) / Fold change /veh KRTAP10-2 (11738614_at) / RFU ARHGAP8 /// PRR5-ARHGAP8 (11727945_x_at) / Fold change /veh ARHGAP8 /// PRR5-ARHGAP8 (11727945_x_at) / RFU KRTAP5-7 /// NADSYN1 (11734609_at) / Fold change /veh KRTAP5-7 /// NADSYN1 (11734609_at) / RFU RASL12 (11751679_a_at) / Fold change /veh RASL12 (11751679_a_at) / RFU CDKN2B (11736163_a_at) / Fold change /veh CDKN2B (11736163_a_at) / RFU PRF1 (11729649_at) / Fold change /veh PRF1 (11729649_at) / RFU, ZNF638 /// ZNF638-IT1 / Fold change vs veh, ZNF638 /// ZNF638-IT1 / RFU, PANK3 / Fold change vs veh, PANK3 / RFU, SH3YL1 / Fold change vs veh, SH3YL1 / RFU, ZEB2 / Fold change vs veh, ZEB2 / RFU, NRIP1 / Fold change vs veh, NRIP1 / RFU, PTTG1IP / Fold change vs veh, PTTG1IP / RFU, CAPN2 / Fold change vs veh, CAPN2 / RFU, MED14 / Fold change vs veh, MED14 / RFU, SNORA58 / Fold change vs veh, SNORA58 / RFU, C1orf63 / Fold change vs veh, C1orf63 / RFU, LRRFIP1 / Fold change vs veh, LRRFIP1 / RFU, NDUFAF7 / Fold change vs veh, NDUFAF7 / RFU, SLC12A2 / Fold change vs veh, SLC12A2 / RFU, IBTK / Fold change vs veh, IBTK / RFU, ESF1 / Fold change vs veh, ESF1 / Fold change vs veh, TMEM50B / RFU, TAOK1 / Fold change vs veh, TAOK1 / RFU, ACBD3 / Fold change vs veh, ACBD3 / RFU, TMA16 / Fold change vs veh, TMA16 / RFU, RWDD3 / Fold change vs veh, RWDD3 / RFU, BCAT1 / Fold change vs veh, BCAT1 / RFU, EDEM3 / Fold change vs veh, EDEM3 / RFU, TMEM33 / Fold change vs veh, TMEM33 / RFU, WDR75 / Fold change vs veh, WDR75 / RFU, AHCTF1 / Fold change vs veh, AHCTF1 / RFU, TFRC / Fold change vs veh, TFRC / RFU, ZDHHC17 / Fold change vs veh, ZDHHC17 / RFU, NOM1 / Fold change vs veh, NOM1 / RFU, ARL8B / Fold change vs veh, ARL8B / RFU, ZBTB11 / Fold change vs veh, ZBTB11 / RFU, TAMM41 / Fold change vs veh, TAMM41 / RFU, KIAA1704 /// LOC100996395 / Fold change vs veh, KIAA1704 /// LOC100996395 / RFU, ING1 / Fold change vs veh, ING1 / RFU, TRMT61B / Fold change vs veh, TRMT61B / RFU, FUBP3 / Fold change vs veh, FUBP3 / RFU, TP53 / Fold change vs veh, TP53 / RFU, TNKS2 / Fold change vs veh, TNKS2 / RFU, ZFP14 / Fold change vs veh, ZFP14 / RFU, ACTR2 / Fold change vs veh, ACTR2 / RFU, PPP3R1 / Fold change vs veh, PPP3R1 / RFU, PIK3R1 / Fold change vs veh, PIK3R1 / RFU, HNRNPA1 / Fold change vs veh, HNRNPA1 / RFU, RNF170 / Fold change vs veh, RNF170 / RFU, ZNF28 / Fold change vs veh, ZNF28 / RFU, RNGTT / Fold change vs veh, RNGTT / RFU, OGT / Fold change vs veh, OGT / RFU, BRD1 / Fold change vs veh, BRD1 / RFU, MARS / Fold change vs veh, MARS / RFU, ZNF655 / Fold change vs veh, ZNF655 / RFU, FAHD1 / Fold change vs veh, FAHD1 / RFU, BDP1 / Fold change vs veh, BDP1 / RFU, LRRCC1 / Fold change vs veh, LRRCC1 / RFU, ARID1A / Fold change vs veh, ARID1A / RFU, ZNF146 / Fold change vs veh, ZNF146 / RFU, ZNF330 / Fold change vs veh, ZNF330 / RFU, GPN3 / Fold change vs veh, GPN3 / RFU, C9orf123 / Fold change vs veh, C9orf123 / RFU, N4BP2L2 / Fold change vs veh, N4BP2L2 / RFU, ARFIP1 / Fold change vs veh, ARFIP1 / RFU, FAM179B / Fold change vs veh, FAM179B / RFU, BCL10 / Fold change vs veh, BCL10 / RFU, UHRF1BP1L / Fold change vs veh, UHRF1BP1L / RFU, BET1 / Fold change vs veh, BET1 / RFU, CNOT2 / Fold change vs veh, CNOT2 / RFU, ZNF268 / Fold change vs veh, ZNF268 / Fold change vs veh, ZNF507 / RFU, DGCR2 / Fold change vs veh, DGCR2 / RFU, WDSUB1 / Fold change vs veh, WDSUB1 / Fold change vs veh, HSP90B1 /// MIR3652 / RFU, ADSS / Fold change vs veh, ADSS / RFU, GK / Fold change vs veh, GK / RFU, ZNF148 / Fold change vs veh, ZNF148 / RFU, TAF9 / Fold change vs veh, TAF9 / RFU, SLC1A5 / Fold change vs veh, SLC1A5 / RFU, SLMO2 / Fold change vs veh, SLMO2 / RFU, ABCC4 / Fold change vs veh, ABCC4 / RFU, LOC101060439 /// RAP1B / Fold change vs veh, LOC101060439 /// RAP1B / RFU, RFX7 / Fold change vs veh, RFX7 / RFU, GTPBP10 / Fold change vs veh, GTPBP10 / RFU, CNEP1R1 / Fold change vs veh, CNEP1R1 / RFU, BIVM-ERCC5 /// ERCC5 / Fold change vs veh, BIVM-ERCC5 /// ERCC5 / RFU, ILF3 / Fold change vs veh, ILF3 / RFU 11762660_at / Fold change /veh 11762660_at / RFU VCAN (11757783_s_at) / Fold change /veh VCAN (11757783_s_at) / RFU DDX43 (11728927_at) / Fold change /veh DDX43 (11728927_at) / RFU KRT8 (11758188_x_at) / Fold change /veh KRT8 (11758188_x_at) / RFU NKD1 (11759106_at) / Fold change /veh NKD1 (11759106_at) / RFU SRD5A1 (11742802_a_at) / Fold change /veh SRD5A1 (11742802_a_at) / RFU TPSAB1 /// TPSB2 (11721975_s_at) / Fold change /veh TPSAB1 /// TPSB2 (11721975_s_at) / RFU GSTM3 (11746129_a_at) / Fold change /veh GSTM3 (11746129_a_at) / RFU IL23R (11737362_x_at) / Fold change /veh IL23R (11737362_x_at) / RFU TMEM51 (11727254_a_at) / Fold change /veh TMEM51 (11727254_a_at) / RFU PIWIL2 (11732686_x_at) / Fold change /veh PIWIL2 (11732686_x_at) / RFU ORM1 (11744905_x_at) / Fold change /veh ORM1 (11744905_x_at) / RFU CCDC152 (11743942_at) / Fold change /veh CCDC152 (11743942_at) / RFU ECM1 (11717891_a_at) / Fold change /veh ECM1 (11717891_a_at) / RFU IL23R (11748794_a_at) / Fold change /veh IL23R (11748794_a_at) / RFU TNFAIP8L3 (11732012_x_at) / Fold change /veh TNFAIP8L3 (11732012_x_at) / RFU MBOAT4 (11741988_at) / Fold change /veh MBOAT4 (11741988_at) / RFU 11764193_at / Fold change /veh 11764193_at / RFU TMEM53 (11763286_at) / Fold change /veh TMEM53 (11763286_at) / RFU MAGEB2 (11727129_at) / Fold change /veh MAGEB2 (11727129_at) / RFU TMEM200A (11744735_a_at) / Fold change /veh TMEM200A (11744735_a_at) / RFU CCDC152 (11751479_a_at) / Fold change /veh CCDC152 (11751479_a_at) / RFU FAM211A (11726209_a_at) / Fold change /veh FAM211A (11726209_a_at) / RFU RGS16 (11746705_a_at) / Fold change /veh RGS16 (11746705_a_at) / RFU VCAN (11755009_s_at) / Fold change /veh VCAN (11755009_s_at) / RFU RHOB (11743442_s_at) / Fold change /veh RHOB (11743442_s_at) / RFU RGS16 (11720943_a_at) / Fold change /veh RGS16 (11720943_a_at) / RFU RGS16 (11720944_at) / Fold change /veh RGS16 (11720944_at) / RFU, VPS4B / Fold change vs veh, VPS4B / RFU, CREB1 / Fold change vs veh, CREB1 / RFU, DNAJC13 / Fold change vs veh, DNAJC13 / RFU, GNAQ / Fold change vs veh, GNAQ / RFU, CDK5R1 / Fold change vs veh, CDK5R1 / RFU, ZRANB3 / Fold change vs veh, ZRANB3 / RFU, CUL4A / Fold change vs veh, CUL4A / RFU, CCNY / Fold change vs veh, CCNY / RFU, UFL1 / Fold change vs veh, UFL1 / RFU, COG3 / Fold change vs veh, COG3 / RFU, DIAPH2 / Fold change vs veh, DIAPH2 / RFU, SKA2 / Fold change vs veh, SKA2 / RFU, AFF3 / Fold change vs veh, AFF3 / RFU, LMF1 / Fold change vs veh, LMF1 / RFU, IPO11 / Fold change vs veh, IPO11 / RFU, DFFB / Fold change vs veh, DFFB / RFU, FOXP1 / Fold change vs veh, FOXP1 / RFU, CARD8 / Fold change vs veh, CARD8 / RFU, STRN3 / Fold change vs veh, STRN3 / RFU, ADK / Fold change vs veh, ADK / RFU, RASSF2 / Fold change vs veh, RASSF2 / RFU, WIPF1 / Fold change vs veh, WIPF1 / RFU, LARP1B / Fold change vs veh, LARP1B / RFU, RASA1 / Fold change vs veh, RASA1 / RFU, RB1 / Fold change vs veh, RB1 / RFU, PPFIA1 / Fold change vs veh, PPFIA1 / RFU, MAT2A / Fold change vs veh, MAT2A / RFU, CCT5 / Fold change vs veh, CCT5 / RFU, WDR92 / Fold change vs veh, WDR92 / RFU, CUX1 / Fold change vs veh, CUX1 / RFU, TTC7A / Fold change vs veh, TTC7A / RFU, TMEM135 / Fold change vs veh, TMEM135 / RFU, DEPTOR / Fold change vs veh, DEPTOR / RFU, CPM / Fold change vs veh, CPM / RFU, DNAJB6 / Fold change vs veh, DNAJB6 / RFU, CACNA2D3 / Fold change vs veh, CACNA2D3 / RFU, DTX4 / Fold change vs veh, DTX4 / RFU, TFCP2 / Fold change vs veh, TFCP2 / RFU, GMCL1 /// GMCL1P1 / Fold change vs veh, GMCL1 /// GMCL1P1 / RFU, AEBP2 / Fold change vs veh, AEBP2 / RFU, SNHG1 /// SNORD22 /// SNORD25 /// SNORD26 /// SNORD27 /// SNORD28 /// SNORD29 /// SNORD31 / Fold change vs veh, SNHG1 /// SNORD22 /// SNORD25 /// SNORD26 /// SNORD27 /// SNORD28 /// SNORD29 /// SNORD31 / Fold change (Aza/veh), C12orf56 (ProbeSet 11735607_a_at) / Fold change (ACY-1035/veh), C12orf56 (ProbeSet 11735607_a_at) / Fold change (Aza/veh), FGFR1OP (ProbeSet 11751329_s_at) / Fold change (ACY-1035/veh), FGFR1OP (ProbeSet 11751329_s_at) / Fold change (Aza/veh), VPS36 (ProbeSet 11739960_a_at) / Fold change (ACY-1035/veh), VPS36 (ProbeSet 11739960_a_at) / RFU SYPL1 (11715823_x_at) / Fold change /veh SYPL1 (11715823_x_at) / RFU IGFBP7 (11715501_s_at) / Fold change /veh IGFBP7 (11715501_s_at) / RFU REEP3 (11722064_at) / Fold change /veh REEP3 (11722064_at) / RFU IGLL1 (11728026_x_at) / Fold change /veh IGLL1 (11728026_x_at): dose or concentration left out as unconfirmed
Conditions: ProbeSet 11732433_s_at; LIST B

**Q.** How did the “RFU, GK” value turn out when `Nc1ncn([C@@H]2O[C@H](CO)[C@@H](O)[C@H]2O)c(=O)n1` [azacitidine] was run?
**A.** 260.90 RFU
